Earlier results on three compounds are cited in US11154501B2, “Method of enhancing the efficacy and stability of ingredients in suspensions” (Nanophase Technologies Corporation, priority 2019, dated 2021).

The conditions of the data set: for solubility limit: in water at 25° C.

Consider `NC(=O)NC1NC(=O)NC1=O` (stereo not drawn) [allantoin, (2,5-dioxo-4-imidazolidinyl) urea, reference compound], for which the solubility limit was 0.5%. `O.O.O=c1c(O)c(-c2ccc(O)c(O)c2)oc2cc(O)cc(O)c12` [quercetin dihydrate]: under “in neutral water”, the “solubility (in words)” value is “very poorly soluble”. Regarding `C[C@@H]1O[C@@H](OC[C@H]2O[C@@H](Oc3c(-c4ccc(O)c(O)c4)oc4cc(O)cc(O)c4c3=O)[C@H](O)[C@@H](O)[C@@H]2O)[C@H](O)[C@H](O)[C@H]1O` [rutin], the solubility limit was 0.013%.
